Reference: US9040725B2, “Benzocycloheptane and benzoxepine derivatives” (Janssen Pharmaceutica NV, priority 2008, dated 2015)
Where two headings read alike, the source gives them in different places. Ends that are not written are not given here.

What was measured:
[1] = system: mice; assay: In house study: gastric emptying of a test meal after intravenous ghrelin in mice; type: in vivo; settings: intravenous administration to mice; 95% confidence interval 0.058-0.174
Text: (§1) These observations confirm that the gastrointestinal pro-kinetic properties of ghrelin-ligands are mediated by direct interaction with GHS1A-r. Small molecules showing affinity for the GHS1A-r and activating it are therefore anticipated to stimulate gastrointestinal motility in general, and gastric emptying in particular.

[2] = system: transgenic mice with a deletion of GHS1A-r; assay: In house study: gastric emptying after ghrelin in transgenic mice with a deletion of GHS1A-r; type: in vivo; settings: administered up to 2.5 mg/kg
Text: as §1

[3] = system: GHS1A-r-/- (KO) mice; assay: Acceleration of gastric emptying in GHS1A-r-/- (KO) mice; type: in vivo; settings: 10 mg/kg subcutaneous 30 minutes before test meal, 15 minutes after meal
Procedure: (§2) FIG. 1 describes the gastric content (measured as extinction units of phenol red) remaining 15 minutes after administration of a phenol red containing test meal by oral gavage in GHS1A-r^+/+ (WT) and GHS1A-r^−/− (KO) mice pretreated with saline (Vehicle) or compound 3 (10 mg/kg SC) 30 minutes before the meal (individual data and mean, n=3).
(§3) Male NMRI-mice weighing around 25 gram were fasted for 20 h and had free access to drinking water. Test compounds were administered to the animals by subcutaneous route 30 min before they were given a test meal by oral gavage. The test meal consisted of 0.3 ml of a chocolate nutridrink solution (1.0 kcal/ml) containing phenol red marker (5 mg/ml). Fifteen min after administration of the meal, the mice were sacrificed by CO2 gas inhalation. The phenol red content remaining in the stomach (extracted from the stomach with NaOH) was determined at 557 nm in a spectrophotometer and expressed as extinction units. Small intestinal propulsion was determined as the distance traveled by the phenol red marker through the intestine and expressed as a percentage of total small intestinal length (from the pylorus to the ileo-cecal junction). […]

[4] = system: NMRI-mice; assay: Acceleration of gastric emptying and small intestinal propulsion in NMRI-mice; type: in vivo; settings: Mus musculus, sc, lowest active dose, subcutaneous, 30 min before phenol red test meal
In short: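 Male NMRI mice (~25 g, fasted 20 h) received compound sc 30 min before a 0.3 ml gavaged chocolate nutridrink meal with phenol red (5 mg/ml). LAD is the lowest active dose per parameter.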

[5] = system: GHS1A-r+/+ (WT) mice; assay: Acceleration of gastric emptying in wild type (GHS1A-r+/+, WT) mice; type: in vivo; settings: 10 mg/kg subcutaneous 30 minutes before test meal, 15 minutes after meal
Procedure: as §2, §3

[6] = target: T1, GHS1A-receptor (Homo sapiens, UniProt Q92847); assay: Ghrelin-agonism in HEK293 cells (intracellular calcium, FLIPR); type: cell-based; settings: HEK293 cells permanently transfected with GHS1A-receptor, calcium fluorescence (fluo-4 or Kit-3), EC50 in M, read-out: pEC50 (converted)
T1 construct: expressed in transfected cells; host or cells: HEK293
T1 sequence (Q92847 whole entry): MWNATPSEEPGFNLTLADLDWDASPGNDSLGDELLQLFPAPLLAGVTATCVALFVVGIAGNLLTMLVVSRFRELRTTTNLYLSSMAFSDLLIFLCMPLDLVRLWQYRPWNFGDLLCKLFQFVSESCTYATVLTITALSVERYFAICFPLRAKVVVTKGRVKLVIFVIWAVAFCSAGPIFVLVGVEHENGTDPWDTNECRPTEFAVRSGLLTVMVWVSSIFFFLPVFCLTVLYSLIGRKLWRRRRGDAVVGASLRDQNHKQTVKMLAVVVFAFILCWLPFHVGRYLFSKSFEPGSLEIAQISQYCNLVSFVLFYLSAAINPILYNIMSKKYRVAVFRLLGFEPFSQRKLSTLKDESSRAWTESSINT
In short: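 HEK293 cells stably expressing GHS1A receptor loaded with fluo-4 or Kit-3 for 1 h at 37° C. Compound-triggered calcium fluorescence (ex 488, em >520 nm) recorded on FLIPR; response expressed relative to maximal ionomycin signal.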

Compound	ED50 stimulation of gastric emptying of a test meal [1] [mg/kg]	effect on gastric emptying [2]	meal content remaining in the stomach versus vehicle [3]	minimal effective dose ([4]; active when >60% of animals had phenol red front beyond 85% of small intestinal length, read-out: LAD (mg/kg) Small intestinal propulsion) [mg/kg]	minimal effective dose ([4]; stomach content 15 min after meal, active when >60% of animals below 0.9 extinction units, read-out: LAD (mg/kg) Gastric emptying) [mg/kg]	meal content remaining in the stomach versus vehicle [5]	EC50 [6] [nM]
ghrelin (GSSFLSPEHQRVQQRKESKKPPAKLQPR; ends and bridges not checked; UniProt Q9UBU3 24-51, looked up) ["an endogenous peptide hormone ... the natural ligand for the type 1 growth hormone secretagogue receptor (GHS1A-r)"]	0.100	no effect					
CN(C)CCCC1(O)c2ccccc2CCCC1c1ccc(Cl)cc1 (single isomer, unassigned) [Compound 3]			no difference in remaining gastric content	0.63	0.63	emptied more than vehicle treated WT mice	20
